In patent US20220040324A1, “COMBINATION OF ANTIBODY-DRUG CONJUGATE AND KINASE INHIBITOR” (DAIICHI SANKYO COMPANY, LIMITED, priority 2018, published 2022):

Tests used:
NCI-N87 cell line = format: cell-based, human; details: 6 days culture, >0 synergistic, 0 additive, <0 antagonistic
Method: The human gastric cancer cell line NCI-N87 purchased from ATCC was used for evaluation. To a 1536-well cell culture plate, erlotinib (hydrochloride), poziotinib, mubritinib, brigatinib, or BIBF1120 prepared with dimethyl sulfoxide (DMSO) to concentrations of 2 mM, 400 μM, 80 μM, 16 μM, 3.2 μM, and 640 nM, or DMSO was added at 25 nL/well. […] Subsequently, NCI-N87 cells suspended with an RPMI1640 Medium containing 10% fetal bovine serum to a concentration of 4×10^4 cells/mL were seeded at 2.5 μL/well, and cultured at 37° C. under 5% CO2 for 6 days.
(§1) After culturing, a solution obtained by diluting CellTiter-Glo 2.0 Assay (Promega Corporation) with an equivalent amount of Glo Lysis buffer, 1×(Promega Corporation) was added at 2 μL/well, and incubation was performed at room temperature for 1 hour, and luminescence intensity was then measured for each well.
(§2) Cell growth inhibition rate (%) was calculated by using the following calculation expression.
(§3) T: Mean luminescence intensity of wells with specimen B: Mean luminescence intensity of wells with DMSO and medium C: Mean luminescence intensity of wells with DMSO and cells
(§4) Sigmoid fitting with Genedata Screener Analyzer Version 14 (Genedata AG, hereinafter referred to as Screener) was performed for concentration-dependent transition of cell growth inhibition rates under each of combined use conditions.

EBC-1 cell line = format: cell-based, human; details: combined with mubritinib, 6 days culture, >0 synergistic, 0 additive, <0 antagonistic
Method: as §2, §3, §4

KPL-4 cell line = format: cell-based, human; details: 6 days culture, >0 synergistic, 0 additive, <0 antagonistic
Method: as §2, §3, §4

BxPC-3 cell line = format: cell-based, human; details: combined with mubritinib, 6 days culture, >0 synergistic, 0 additive, <0 antagonistic
Method: as §2, §3, §4, §1

KPL-4 cells [1] = assay: Antitumor test (4): nude mice with subcutaneously transplanted KPL-4 cells; format: in vivo, human; details: single administration; tucatinib 100 mg/kg orally once a day, five times a week, two weeks
Method: (§5) Mouse: 5 to 6-week-old BALB/c nude mice (Charles River Laboratories Japan, Inc.) were subjected to experiment.
(§6) Assay and calculation expression: In all of the studies, the major axis and minor axis of a tumor were measured twice a week by using an electronic digital caliper (CD15-CX, Mitutoyo Corp.), and the tumor volume (mm^3) was calculated. The calculation expression is as shown below.
(§7) Tumor volume (mm^3)=1/2×Major axis (mm)×[Minor axis (mm)]^2
(§8) Everolimus was suspended in 30% propylene glycol and 5% Tween 80, and orally administered at a liquid volume of 10 mL/kg. Taselisib was suspended in 0.5% methyl cellulose and 0.2% Tween 80, and orally administered at a liquid volume of 10 mL/kg. Abemaciclib was suspended in 1% hydroxyethyl cellulose and 0.1% antifoam/25 mM phosphate buffer, pH2, and orally administered at a liquid volume of 10 mL/kg.

MDA-MB-453 cells [2] = assay: Antitumor test (5): nude mice with subcutaneously transplanted MDA-MB-453 cells; format: in vivo, human; details: single administration; tucatinib 100 mg/kg once a day, five times a week, three weeks
Method: as §5, §6, §7, §8

NCI-N87 cells = assay: Antitumor test (6): nude mice with subcutaneously transplanted NCI-N87 cells; format: in vivo, human; details: single administration; tucatinib 100 mg/kg once a day, five times a week, two weeks
Method: as §5, §6, §7, §8

COLO201 cells = assay: Antitumor test (3): nude mice with subcutaneously transplanted COLO201 cells; format: in vivo, human; details: single administration; regorafenib 10 mg/kg orally once a day, five times a week, three weeks
Method: as §5, §6, §7, §8

KPL-4 cells [3] = assay: Antitumor test (7): nude mice with subcutaneously transplanted KPL-4 cells; format: in vivo, human; details: single administration
Method: as §5, §6, §7
KPL-4 cells, a human breast cancer cell line, obtained from Dr. Junichi Kurebayashi, Kawasaki Medical School (British Journal of Cancer. (1999)79 (5/6). 707-717) were suspended in physiological saline, and 1.5×10^7 cells were subcutaneously transplanted to the right flank of each female nude mouse, and the mice were randomly grouped 17 days after the transplantation (Day 0). The antibody-drug conjugate (2) was diluted with ABS buffer, and intravenously administered to the tail vein of each mouse once a week at a dose of 10 mg/kg (a liquid volume of 10 mL/kg) for three weeks (Days 0, 7, 14). Neratinib was suspended in 0.5% methyl cellulose, and orally administered once a day, five times a week, at a dose of 20 mg/kg (a liquid volume of 10 mL/kg) for two weeks. Single administration groups and a combined administration group with the antibody-drug conjugate (2) and neratinib, and an ABS administration group as a control group were established.

MDA-MB-453 cells [4] = assay: Antitumor test (9): nude mice with subcutaneously transplanted MDA-MB-453 cells; format: in vivo, human; details: single administration
Method: as §5, §6, §7
Palbociclib was suspended in 0.5% methyl cellulose, and orally administered once a day, five times a week, at a dose of 50 mg/kg (a liquid volume of 10 mL/kg) for three weeks from Day 0.

MDA-MB-453 cells [5] = assay: Antitumor test (10): nude mice with subcutaneously transplanted MDA-MB-453 cells; format: in vivo, human; details: single administration
Method: as §5, §6, §7
MDA-MB-453 cells, a human breast cancer cell line, obtained from ATCC were suspended in Matrigel basement membrane matrix, and 1×10^7 cells were subcutaneously transplanted to the right flank of each female nude mouse, and the mice were randomly grouped 7 days after the transplantation (Day 0). The antibody-drug conjugate (2) was diluted with ABS buffer, and intravenously administered to the tail vein of each mouse once a week at a dose of 1 mg/kg (a liquid volume of 10 mL/kg) for three weeks (Days 0, 7, 14). Alpelisib was suspended in 0.5% methyl cellulose, and orally administered once a day, five times a week, at a dose of 25 mg/kg (a liquid volume of 10 mL/kg) for three weeks from Day 0. Single administration groups and a combined administration group with the antibody-drug conjugate (2) and alpelisib, and an ABS administration group as a control group were established.

MDA-MB-453 cells [6] = assay: Antitumor test (1): nude mice with subcutaneously transplanted MDA-MB-453 cells; format: in vivo, human; details: single administration, five times a week
Method: as §5, §6, §7, §8
Everolimus was administered once a day, five times a week, at a dose of 5 mg/kg for 3 weeks. Taselisib was administered once a day, five times a week, at a dose of 5 mg/kg for 3 weeks. Abemaciclib was administered once a day, five times a week, at a dose of 30 mg/kg for 2 weeks.

JIMT-1 cells = assay: Antitumor test (2): nude mice with subcutaneously transplanted JIMT-1 cells; format: in vivo, human; details: single administration; everolimus 5 mg/kg once a day, five times a week, seven times in total
Method: as §5, §6, §7, §8

786-0 cells = assay: Antitumor test (8): nude mice with subcutaneously transplanted 786-0 cells; format: in vivo, human; details: single administration
Method: as §5, §6, §7
Suspended in 100% Matrigel were 786-0 cells, a human kidney cancer cell line, purchased from ATCC, and 4×10^6 cells were subcutaneously transplanted to the right flank of each female nude mouse, and the mice were randomly grouped 19 days after the transplantation (Day 0). […] Cabozantinib was administered once a day, five times a week, 20 times in total, at a dose of 40 mg/kg.

CC[C@@]1(O)C(=O)OCc2c1cc1n(c2=O)Cc2c-1nc1cc(F)c(C)c3c1c2[C@@H](NC(=O)CO)CC3 [Compound (1)]
Synergy Score, combination with BIBF1120 (NCI-N87 cell line; combined with BIBF1120 (nintedanib)): −0.44
Synergy Score, combination with Mubritinib (NCI-N87 cell line; combined with mubritinib): −0.45
Synergy Score, combination with Poziotinib (NCI-N87 cell line; combined with poziotinib): −0.53
Synergy Score, combination with Mubritinib (EBC-1 cell line): −0.60
Synergy Score, combination with Brigatinib (KPL-4 cell line; combined with brigatinib): −0.02
Synergy Score, combination with Poziotinib (KPL-4 cell line; combined with poziotinib): −0.38
Synergy Score, combination with Mubritinib (BxPC-3 cell line): −0.40

Cc1cc(Nc2ncnc3ccc(NC4=NC(C)(C)CO4)cc23)ccc1Oc1ccn2ncnc2c1 [tucatinib]
tumor growth inhibition (TGI) (KPL-4 cells [1]): 78%
tumor growth inhibition (TGI) (MDA-MB-453 cells [2]): 36%
tumor growth inhibition (TGI) (NCI-N87 cells): 65%

CNC(=O)c1cc(Oc2ccc(NC(=O)Nc3ccc(Cl)c(C(F)(F)F)c3)c(F)c2)ccn1 [regorafenib]
tumor growth inhibition (TGI) (COLO201 cells): 81%

CCOc1cc2ncc(C#N)c(Nc3ccc(OCc4ccccn4)c(Cl)c3)c2cc1NC(=O)/C=C/CN(C)C [neratinib]
tumor growth inhibition (TGI) (KPL-4 cells [3]; neratinib 20 mg/kg orally once a day, five times a week, two weeks, day of effect determination): 84%

antibody-drug conjugate (2): anti-HER3 antibody (SEQ ID NO: 3 and 4) conjugated to the drug-linker via thioether bond; DAR 7 to 8
tumor growth inhibition (TGI) (KPL-4 cells [3]; antibody-drug conjugate (2) 10 mg/kg iv once a week, three weeks (Days 0, 7, 14)): 67%
tumor growth inhibition (TGI) (MDA-MB-453 cells [4]; antibody-drug conjugate (2) 1 mg/kg iv once a week, three weeks (Days 0, 7, 14), grouped 11 days after transplantation): 54%
tumor growth inhibition (TGI) (MDA-MB-453 cells [5]; antibody-drug conjugate (2) 1 mg/kg iv once a week, three weeks (Days 0, 7, 14), grouped 7 days after transplantation): 68%

CCN1CCN(Cc2ccc(Nc3ncc(F)c(-c4cc(F)c5nc(C)n(C(C)C)c5c4)n3)nc2)CC1 [abemaciclib]
tumor growth inhibition (TGI) (MDA-MB-453 cells [6]; abemaciclib 30 mg/kg orally once a day, 2 weeks): 68%

CO[C@H]1C[C@@H]2CC[C@@H](C)[C@@](O)(O2)C(=O)C(=O)N2CCCC[C@H]2C(=O)O[C@H]([C@H](C)C[C@@H]2CC[C@@H](OCCO)[C@H](OC)C2)CC(=O)[C@H](C)/C=C(\C)[C@@H](O)[C@@H](OC)C(=O)[C@H](C)C[C@H](C)/C=C/C=C/C=C/1C [everolimus]
tumor growth inhibition (TGI) (MDA-MB-453 cells [6]; everolimus 5 mg/kg orally once a day, 3 weeks, BALB/c nude mice, day of effect determination): 64%
tumor growth inhibition (TGI) (JIMT-1 cells): 52%

Cc1nc(NC(=O)N2CCC[C@H]2C(N)=O)sc1-c1ccnc(C(C)(C)C(F)(F)F)c1 [alpelisib]
tumor growth inhibition (TGI) (MDA-MB-453 cells [5]; alpelisib 25 mg/kg orally once a day, five times a week, three weeks from Day 0): 56%

CC(=O)c1c(C)c2cnc(Nc3ccc(N4CCNCC4)cn3)nc2n(C2CCCC2)c1=O [palbociclib]
tumor growth inhibition (TGI) (MDA-MB-453 cells [4]; palbociclib 50 mg/kg orally once a day, five times a week, three weeks from Day 0): 72%

Cc1nc(-c2cn3c(n2)-c2ccc(-c4cnn(C(C)(C)C(N)=O)c4)cc2OCC3)n(C(C)C)n1 [taselisib]
tumor growth inhibition (TGI) (MDA-MB-453 cells [6]; taselisib 5 mg/kg orally once a day, 3 weeks): 67%

COc1cc2nccc(Oc3ccc(NC(=O)C4(C(=O)Nc5ccc(F)cc5)CC4)cc3)c2cc1OC [cabozantinib]
tumor growth inhibition (TGI) (786-0 cells; cabozantinib 40 mg/kg once a day, five times a week, 20 times in total): 67%

B1: antibody-drug conjugate (3): anti-CDH6 antibody (SEQ ID NO: 9 residues 20-471, SEQ ID NO: 10 residues 21-233) conjugated to the drug-linker via thioether bond; DAR 7 to 8 (conjugate, chains of the INN, looked up)
VH: EVQLVQSGAEVKKPGASVKVSCKASGYTFTRNFMHWVRQAPGQGLEWMGWIYPGDGETEYAQKFQGRVTITADTSTSTAYMELSSLRSEDTAVYYCARGVYGGFAGGYFDFWGQGTLVTVSS
VL: DIQMTQSPSSLSASVGDRVTITCKASQNIYKNLAWYQQKPGKAPKLLIYDANTLQTGVPSRFSGSGSGSDFTLTISSLQPEDFATYFCQQYYSGWAFGQGTKVEIK
modifications: deruxtecan-type drug-linker, DAR 7-8
tumor growth inhibition (TGI) (786-0 cells; antibody-drug conjugate (3) 10 mg/kg iv on Day 0): 71%
